SMILES strings stand for the structures. Like-named read-outs stand apart in the source and are kept apart here.

One data set has as its system HepG2 cells. The data set is described as follows: HepG2 cell apoptosis after incubation of the compound with human liver microsomes (metabolism mixture). It counts as cell-based. As to conditions: mixture on HepG2 cells 24 h. The protocol:
HepG2 cells were cultured in Roswell Park Memorial Institute (RPMI) 1640 medium (GIBCO, Grand Island, NY, USA) supplemented with 10% heat-inactivated fetal bovine serum (PAN Biotech GmbH, Aidenbach, Germany), 100 U/mL penicillin, and 100 μg/mL streptomycin. The cells were maintained in a humidified atmosphere with 5% CO2 at 37 °C. Upon reaching 90% confluence, the cells were prepared as single-cell suspensions at a density of 1 × 10^4 cells/mL by treatment with 0.25% trypsin with 0.02% EDTA and then dispensed into 12-well plates (Corning, NY, USA) with a total volume of 1.5 mL per well. After culturing for 24 h, the medium was discarded, and the cells were incubated with fresh medium or medium containing different hepatotoxic compounds at various concentrations for an additional 24 h. […] After treatment, the cells were collected for apoptosis analysis. To investigate the effects of the hepatotoxic compounds on HepG2 cell apoptosis, flow cytometry was performed with a FACSCalibur flow cytometer (BD Biosciences) using an Annexin V-FITC apoptosis detection kit. The cells were prepared according to the manufacturer’s instructions. Briefly, the collected cell pellets were washed three times by centrifugation at 2000 rpm and 4 °C for 5 min with PBS and resuspended in binding buffer. Then, the cells were incubated with Annexin V-FITC for 15 min, propidium iodide (PI) was added, and the cells were incubated for another 5 min. The whole labeling process was performed in the dark. After fluorescent labeling, the cell suspension was immediately analyzed by flow cytometry. Cells in the early phases of apoptosis can bind Annexin V-FITC but exclude PI, while cells in late apoptosis or those that are necrotic can be stained with Annexin V-FITC and PI simultaneously. The incubation mixtures were prepared following the instructions from the manufacturer of the metabolic stability kits and contained sagittatoside A, icariside I, baohuoside I, and icaritin, of which the final concentrations were 49, 50, 32 and 3.8 μg/mL. […]
On the technique in general: Liver microsomes are vesicles of endoplasmic reticulum, rich in cytochrome P450 enzymes.

The format of data set [1] is in vitro ADME, SD rats. As to conditions: SD, rat, microsomes, 1 h, 5 μM.
The format of data set [2] is in vitro ADME, humans. Particulars: human, microsomes, 5 μM; for amount remaining: 1 h; for final amount remaining: 60 min. The protocol:
The incubation mixtures were prepared following the instructions from the manufacturer of the metabolic stability kits and contained sagittatoside A, icariside I, baohuoside I, and icaritin, of which the final concentrations were 49, 50, 32 and 3.8 μg/mL. The final concentration of organic solvents in the incubation mixture was 1% (v/v). After preincubation for 5 min at 37 °C, metabolic reactions of phase I and II were both initiated by the addition of human liver microsomes (final concentration, 0.20 mg protein/mL). Phase I metabolism is mediated by the enzyme cytochrome P450 (CYP), and phase II metabolism is mediated by UDP-glucuronosyltransferase (UGT). The whole reaction process was performed under aerobic conditions. After 30 min, an equal volume of cold acetonitrile was added and vortexed for 1 min to terminate the reactions. Subsequently, 200 μL of the resulting solution was centrifuged at 3000 rpm and 4 °C for 10 min. Then, 100 μL of supernatant was dried at 40 °C with nitrogen gas, and the residue was redissolved in 100 μL with fresh medium to prepare for treating cells. Negative controls (incubation without substrate) were prepared in the same manner.
The incubation mixtures were also prepared following Section 2.4 and contained sagittatoside A, icariside I, baohuoside I, and icaritin, of which the final concentrations were 5.00 μM. After the mixtures were incubated separately in phase I or phase II metabolism systems for 5, 10, 15, 20, 30, 45 and 60 min, the reactions were terminated by adding an equal volume of cold acetonitrile (with 7 μM IS) and vortex mixing for 1 min. Subsequently, 200 μL of the resulting solution was centrifuged at 3000 rpm and 4 °C for 10 min. Then, 100 μL of supernatant was dried at 40 °C with nitrogen gas, and the residue was redissolved in 100 μL of 50% methanol to prepare the samples for HPLC–MS/MS detection. Time zero samples (prepared by first adding cold acetonitrile and then adding NADPH for phase I metabolism or NADPH and UDPGA for phase II metabolism) and negative controls (incubation without substrate) were prepared separately in the same manner.
HPLC analysis was performed on an AB Sciex ExionLC HPLC system (Santa Clara, CA, USA) equipped with an autosampler, a vacuum degasser unit, a quaternary pump, a diode array detector (DAD) and a column compartment. Samples were separated on an ACQUITY ΜPLC BEH C18 column (2.1 × 100 mm, 1.7 μm) connected to an ACQUITY ΜPLC BEH C18 precolumn (2.1 × 5 mm, 1.7 μm) at 40 °C. The mobile phases were water with 0.05% formic acid (A) and methanol-acetonitrile (v/v 1:1) with 0.05% formic acid (B), and the elution gradient was as follows: 70% A (0.00–1.00 min), 2% A (2.50–3.50 min), and 70% A (3.51–7.00 min). The flow rate was set at 0.23 mL/min, and the injection volume was 5 μL.
Electrospray ionization–mass spectrometry (ESI–MS) analyses were performed on an AB Sciex QTRAP 5500 (EG250911902) mass spectrometer (Santa Clara, CA, USA). Detection was performed with multiple reaction monitoring (MRM) in ESI negative ion mode. The spray voltage was set to −4500 V, the curtain gas was 25 psi, the collision gas was set to medium, both auxiliary gases 1 and 2 were used at 45 psi, and the heating temperature was 550 °C.
In accordance with the above HPLC–MS/MS analysis method, the content of each compound in the sample at each time point was measured. Then, using the substrate depletion method, the content of each compound in the time zero sample was set as 100%, and the percent residual substrate was calculated. The relationship between the natural logarithmic value of the percent residual substrate and time point was explored by linear regression using GraphPad Prism 5.0 software, and the slope (−k) was obtained. […]

A further data set is described as follows: in vitro. It counts as in vitro ADME, beagle dogs. Particulars: beagle, dog, microsomes; for amount remaining: 1 h, 5 μM.
Data set [3] is classed as in vitro ADME, SD rats. Particulars: SD, rat, microsomes, 60 min, 5 μM.

For orientation: CLint scaled means the capacity of the preparation to metabolise the compound, expressed as a volume cleared per time. The low end stands for slow turnover, the high end for rapid turnover. Consider `COc1ccc(-c2oc3c(CC=C(C)C)c(O[C@@H]4O[C@H](CO)[C@@H](O)[C@H](O)[C@H]4O)cc(O)c3c(=O)c2O)cc1` [icariside I], for which, in the data set on HepG2 cells (50 μg/mL incubated 30 min with human liver microsomes (phase I and II), p < 0.05), the “apoptosis rate, metabolism mixture” value stood at 3.86 ± 0.22%. In addition, the amount remaining in data set [1] was found to be 2.38 ± 0.32%; in data set [2], 10.08 ± 0.43%; in the data set “in vitro”, 34.93 ± 2.83%. For the same molecule, the final amount remaining came out at 45.62 ± 1.52% in data set [2] and 22.71 ± 10.94% in data set [3]. In “in vitro”, this molecule had a CLint scaled at 5 μM of 25.2 mL/min/kg.
As for `COc1ccc(-c2oc3c(CC=C(C)C)c(O)cc(O)c3c(=O)c2O)cc1` [icaritin], the “apoptosis rate, metabolism mixture” value in the data set on HepG2 cells (3.8 μg/mL incubated 30 min with human liver microsomes (phase I and II), p < 0.01) is given as 5.61 ± 0.83%. Moreover, the figures for the amount remaining (in data set [1]; in data set [2]; in “in vitro”) were 48.95 ± 4.13%, 36.23 ± 1.12% and 16.75 ± 0.20%, respectively. For the same molecule, the final amount remaining in data set [2] amounted to 20.51 ± 0.97%; in data set [3] it was 19.44 ± 0.36%.
In the case of `COc1ccc(-c2oc3c(CC=C(C)C)c(O)cc(O)c3c(=O)c2O[C@@H]2O[C@@H](C)[C@H](O)[C@@H](O)[C@H]2O)cc1` [baohuoside I], the “apoptosis rate, metabolism mixture” value with HepG2 cells (32 μg/mL incubated 30 min with human liver microsomes (phase I and II), insignificant) is on record as 3.40 ± 0.19%. Moreover, the amount remaining was 8.52 ± 0.15% in data set [1], 20.74 ± 0.39% in data set [2] and 11.74 ± 0.78% in the data set “in vitro”. In addition, the values for the final amount remaining in data set [2] and in data set [3] were 5.56 ± 0.60% and 1.55 ± 0.33%, respectively. In addition, the intrinsic clearance (CLint scaled) at 5 μM in the data set “in vitro” came to 27.6 mL/min/kg.

Source of the values: article PMC10975178, “Evaluation on the Potential for Hepatotoxic Components from Herba Epimedii to Induce Apoptosis in HepG2 Cells and the Analysis of the Influence of Metabolism in Liver Microsomes” (Molecules, 2024).
